Measured values from the supplement of paper PMC6045584.
± gives the standard deviation of the averaged measurements.

How the values were obtained:
OSI-906 = compound: C[C@]1(O)C[C@@H](c2nc(-c3ccc4ccc(-c5ccccc5)nc4c3)c3c(N)nccn32)C1 [OSI-906]; assay: surviving fraction relative to DMSO-only wells; higher = less growth inhibition; conditions: exposure time: 5 days
Procedure, shortened: (§1)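 After seeding at 250–500 cells per well in 384-well plates and a 24-hour wait, log-phase tumour cell lines were exposed without interruption for five days to inhibitors at 0.5, 1, 5, 10, 50, 100, 500 and 1000 nM. CellTiter-Glo luminescence was recorded after 10 minutes at room temperature. Viability is reported as surviving fraction, the luminescence normalised to the median of DMSO-only wells.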

CARBOPLATIN = compound: O=C(O)C1(C(=O)O)CCC1.[NH2-].[NH2-].[Pt+2] [CARBOPLATIN]; assay: as above; conditions: exposure time: 5 days
Procedure, shortened: as §1

Test System | surviving fraction (OSI-906; 0.5 nM) | surviving fraction (OSI-906; 1 nM) | surviving fraction (OSI-906; 5 nM) | surviving fraction (OSI-906; 10 nM) | surviving fraction (OSI-906; 50 nM) | surviving fraction (OSI-906; 100 nM) | surviving fraction (OSI-906; 500 nM) | surviving fraction (OSI-906; 1000 nM) | surviving fraction (CARBOPLATIN; 0.5 nM) | surviving fraction (CARBOPLATIN; 1 nM) | surviving fraction (CARBOPLATIN; 5 nM) | surviving fraction (CARBOPLATIN; 10 nM) | surviving fraction (CARBOPLATIN; 50 nM) | surviving fraction (CARBOPLATIN; 100 nM) | surviving fraction (CARBOPLATIN; 500 nM) | surviving fraction (CARBOPLATIN; 1000 nM)
LM7 BONE | 0.743 ± 0.037 | 0.717 ± 0.062 | 0.801 ± 0.074 | 0.747 ± 0.041 | 0.867 ± 0.011 | 0.771 ± 0.048 | 0.48 ± 0.023 | 0.435 ± 0.025 | 1.06 ± 0.017 | 1.07 ± 0.051 | 1.09 ± 0.076 | 1.05 ± 0.028 | 1.11 ± 0.064 | 1.08 ± 0.094 | 1 ± 0.028 | 1.02 ± 0.018
MCF7 BREAST | 0.832 ± 0.042 | 0.85 ± 0.044 | 0.816 ± 0.022 | 0.825 ± 0.056 | 0.831 ± 0.018 | 0.847 ± 0.029 | 0.722 ± 0.036 | 0.661 ± 0.013 | 0.942 ± 0.053 | 0.867 ± 0.048 | 0.995 ± 0.049 | 0.898 ± 0.042 | 0.968 ± 0.05 | 0.949 ± 0.068 | 0.984 ± 0.092 | 0.892 ± 0.018
MDAMB157 BREAST | 0.892 ± 0.048 | 0.875 ± 0.11 | 0.949 ± 0.058 | 0.946 ± 0.079 | 0.957 ± 0.11 | 0.855 ± 0.056 | 0.872 ± 0.037 | 0.884 ± 0.086 | 1.04 ± 0.1 | 0.881 ± 0.024 | 1.02 ± 0.11 | 1.04 ± 0.066 | 1.06 ± 0.12 | 0.957 ± 0.056 | 0.949 ± 0.084 | 0.943 ± 0.13
HELA CERVIX | 0.971 ± 0.033 | 0.981 ± 0.054 | 0.955 ± 0.069 | 0.88 ± 0.09 | 1.03 ± 0.035 | 1.07 ± 0.036 | 1 ± 0.081 | 1.01 ± 0.048 | 1.07 ± 0.02 | 1.03 ± 0.042 | 1.03 ± 0.034 | 1.01 ± 0.02 | 1.05 ± 0.053 | 1.14 ± 0.088 | 1.15 ± 0.055 | 1.09 ± 0.045
143B BONE | 1.02 ± 0.048 | 0.972 ± 0.028 | 1.07 ± 0.071 | 1.04 ± 0.05 | 0.959 ± 0.083 | 0.99 ± 0.011 | 0.9825 ± 0.0078 | 0.989 ± 0.023 | 1.11 ± 0.099 | 1.11 ± 0.083 | 1.13 ± 0.06 | 1.14 ± 0.097 | 1.15 ± 0.15 | 1.13 ± 0.053 | 1.13 ± 0.11 | 1.12 ± 0.11
CAL72 BONE | 1.009 ± 0.006 | 1 ± 0.018 | 0.998 ± 0.049 | 0.966 ± 0.058 | 1 ± 0.038 | 0.98 ± 0.028 | 0.893 ± 0.048 | 0.861 ± 0.082 | 1.05 ± 0.081 | 1.03 ± 0.094 | 1.06 ± 0.035 | 1.06 ± 0.052 | 1.12 ± 0.084 | 1.03 ± 0.23 | 1.1 ± 0.11 | 1.01 ± 0.15
NOS1 BONE | 0.916 ± 0.13 | 0.944 ± 0.062 | 1.16 ± 0.49 | 1 ± 0.15 | 1 ± 0.059 | 0.884 ± 0.057 | 0.465 ± 0.028 | 0.462 ± 0.029 | 1.22 ± 0.2 | 1.08 ± 0.076 | 1.31 ± 0.13 | 1.25 ± 0.1 | 1.22 ± 0.14 | 1.23 ± 0.1 | 1.11 ± 0.051 | 0.955 ± 0.073
VP229 BREAST | 0.856 ± 0.095 | 0.825 ± 0.078 | 0.874 ± 0.039 | 0.9 ± 0.038 | 0.925 ± 0.1 | 0.867 ± 0.048 | 0.767 ± 0.14 | 0.665 ± 0.11 | 1.12 ± 0.14 | 1.05 ± 0.022 | 1.11 ± 0.12 | 0.961 ± 0.088 | 1.17 ± 0.21 | 1.05 ± 0.025 | 1.19 ± 0.096 | 0.956 ± 0.14
PCI30 HEADNECK | 0.89 ± 0.027 | 0.947 ± 0.022 | 0.955 ± 0.076 | 1.05 ± 0.074 | 1.07 ± 0.051 | 1.01 ± 0.077 | 0.939 ± 0.075 | 0.931 ± 0.033 | 1.07 ± 0.036 | 1.09 ± 0.04 | 1.03 ± 0.021 | 1.11 ± 0.093 | 1.12 ± 0.067 | 1.08 ± 0.03 | 1.07 ± 0.079 | 1.07 ± 0.039
LNCAP PROSTATE | 1.12 ± 0.058 | 1.07 ± 0.095 | 1.07 ± 0.036 | 1.11 ± 0.018 | 0.991 ± 0.12 | 1.05 ± 0.1 | 1.04 ± 0.032 | 1.06 ± 0.026 | 1.02 ± 0.043 | 0.919 ± 0.079 | 0.981 ± 0.023 | 1.03 ± 0.086 | 1.09 ± 0.031 | 1.04 ± 0.046 | 1 ± 0.18 | 0.977 ± 0.077
HCC1806 BREAST | 0.722 ± 0.032 | 0.721 ± 0.093 | 0.783 ± 0.11 | 0.822 ± 0.03 | 0.962 ± 0.077 | 1.07 ± 0.064 | 0.883 ± 0.04 | 0.826 ± 0.036 | 1.05 ± 0.14 | 0.777 ± 0.044 | 1.1 ± 0.15 | 1.2 ± 0.012 | 1.17 ± 0.081 | 1.14 ± 0.14 | 1.04 ± 0.086 | 1.16 ± 0.14
SCC003 HEADNECK | 0.796 ± 0.018 | 0.865 ± 0.028 | 0.88 ± 0.099 | 0.87 ± 0.011 | 1.02 ± 0.022 | 1.04 ± 0.013 | 0.976 ± 0.04 | 0.845 ± 0.04 | 1.1 ± 0.075 | 1.06 ± 0.04 | 1.1 ± 0.039 | 1.04 ± 0.025 | 1.14 ± 0.027 | 1.03 ± 0.035 | 1.13 ± 0.17 | 0.995 ± 0.051
SJSA1 BONE | 1.23 ± 0.051 | 1.22 ± 0.075 | 1.17 ± 0.2 | 1.21 ± 0.11 | 0.917 ± 0.21 | 1.62 ± 0.052 | 0.785 ± 0.31 | 0.388 ± 0.031 | 1.68 ± 0.11 | 1.73 ± 0.089 | 1.56 ± 0.12 | 1.64 ± 0.17 | 0.869 ± 0.07 | 1.376 ± 0.0032 | 1.54 ± 0.088 | 1.16 ± 0.17
SUM149.B1*.S BREAST | 0.935 ± 0.025 | 0.927 ± 0.032 | 0.92 ± 0.041 | 0.926 ± 0.025 | 0.974 ± 0.037 | 0.947 ± 0.004 | 0.943 ± 0.032 | 0.888 ± 0.057 | 1.15 ± 0.096 | 1.11 ± 0.02 | 1.12 ± 0.07 | 1.07 ± 0.025 | 1.17 ± 0.024 | 1.2 ± 0.029 | 1.19 ± 0.052 | 1.13 ± 0.025
SG31 HEADNECK | 0.867 ± 0.15 | 0.994 ± 0.057 | 0.84 ± 0.045 | 0.985 ± 0.056 | 1 ± 0.22 | 0.833 ± 0.1 | 0.615 ± 0.042 | 0.493 ± 0.042 | 1.15 ± 0.14 | 1.21 ± 0.11 | 0.963 ± 0.12 | 1.12 ± 0.24 | 1.16 ± 0.1 | 1.06 ± 0.19 | 1.17 ± 0.083 | 1.21 ± 0.14
SAOS2 BONE | 0.82 ± 0.027 | 0.858 ± 0.013 | 0.804 ± 0.085 | 0.838 ± 0.045 | 1.06 ± 0.018 | 0.877 ± 0.066 | 0.594 ± 0.016 | 0.522 ± 0.057 | 1.1 ± 0.048 | 1.18 ± 0.014 | 1.18 ± 0.059 | 1.16 ± 0.073 | 1.15 ± 0.051 | 1.06 ± 0.11 | 1.09 ± 0.097 | 0.943 ± 0.22
